Results on 25 molecules are retold here after patent US20240083885A1, “COMPOSITIONS AND METHODS FOR INHIBITING M PRO PROTEASE ACTIVITY AND FOR PREVENTING AND TREATING SARS-COV-2 INFECTION” (priority 2020, published 2024).

Like-named read-outs stand apart in the source and are kept apart here. A value given as a limit tells only on which side of the number the result lay.

For data set [1], the system named is SARS-CoV-2. The data set can be described thus: microbe, parasite or virus in culture. The class given is cell-based.
The target in data set [2] is SARS-CoV-2 M^pro (Severe acute respiratory syndrome coronavirus 2 (2019-nCoV) (SARS-CoV-2), UniProt P0DTD1). In words: biochemical.
Data set [3] relates to Vero E6 cells. The data set can be described thus: Cytotoxicity in Vero E6 cells (neutral red uptake). As to conditions: read-out: CC50 in Vero E6 cells.
The nature of data set [4]: in vitro. The settings on record: African green monkey.
A short description of data set [5]: in vitro. As to conditions: human, CC50 in Calu-3 cells.
Setting [6] is: Severe acute respiratory syndrome coronavirus 2, Vero C1008; read-out: SARS-COV-2 antiviral activity using immunofluorescence assay EC50.
The mark [7] stands for this setting: Severe acute respiratory syndrome coronavirus 2, Vero C1008; Vero E6 cells, immunofluorescence assay; read-out: SARS-CoV-2 antiviral assay EC50.
Where [8] appears, read: Severe acute respiratory syndrome coronavirus 2, Vero C1008; read-out: antiviral EC50 against SARS-CoV-2 in Vero E6 cells.
[9] abbreviates: SARS-COV-2 main protease enzymatic inhibition IC50.
[10] abbreviates: read-out: IC50 against SARS-CoV-2 M^pro.
Setting [11] is: read-out: SARS-COV-2 main protease enzymatic inhibition IC50.
[12] abbreviates: read-out: SARS-CoV-2 M^pro IC50.

Turning to `C[C@H](NC(=O)C(c1cccnc1)N(C(=O)c1ccco1)c1ccc(-c2ccccc2)cc1)c1ccccc1` (single isomer, unassigned) [Jun8-76-3B], the EC50 in data set [1] (setting [6]) turned out to be 2.97 µM; in data set [2] (SARS-COV-2 main protease enzymatic inhibition (separated diastereomers, printed as EC50)), 1.35 µM.

With `CC(C)(C)NC(=O)C(c1cnccn1)N(C(=O)c1ccco1)c1ccc(C(C)(C)C)cc1` (centres unmarked) [Compound 27], the CC50 in data set [3] is over 100 µM.

As to `C[C@H](NC(=O)C(c1cccnc1)N(C(=O)c1ccco1)c1ccc(-c2ccccc2)cc1)c1ccccc1` (some centres unmarked) [Jun8-76-3], in data set [4] (Vero E6 Cytotoxicity CC50 (μM)), the CC50 at 5 days was over 200 µM. Further, the EC50 in data set [1] (setting [7]) is 1.61 ± 0.29 µM; in data set [1] (setting [6]), 1.83 µM; in data set [1] (setting [8]), 0.82 to 4.54 µM. Moreover, the CC50 in data set [3] was over 100 µM. For the same molecule, the IC50 is under 3 µM in data set [2] (IC50 against SARS-CoV-2 M^pro), 0.31 µM in data set [2] (setting [9]) and 0.31 ± 0.13 µM in data set [2] (SARS-CoV-2 M^pro IC50 (μM)).

The molecule `C[C@H](NC(=O)C(c1cccnc1)N(C(=O)C(Cl)(Cl)Br)c1ccc(-c2ccccc2)cc1)c1ccccc1` (stereo partly drawn) [Jun9-89-3, N-([1,1′-biphenyl]-4-yl)-2-bromo-2,2-dichloro-N-(2-oxo-2-(((S)-1-phenylethyl)amino)-1-(pyridin-3-yl)ethyl)acetamide] returned a CC50 at 5 days in data set [4] (CC50 in Vero E6 cells) of 32.4 µM. Moreover, the IC50 in data set [2] (setting [10]) came to 1.2 µM.

With `C[C@H](NC(=O)C(c1cnccn1)N(C(=O)c1c[nH]cn1)c1ccc(-c2ccccc2)cc1)c1ccccc1` (some centres unmarked) [Jun9-5-2], in data set [4] (Vero E6 Cytotoxicity CC50 (μM)), the CC50 at 5 days came out at 148 ± 13.9 µM. Also, the “Selectivity index SI CC50/EC50” value in data set [1] is recorded as 32.6. For the same molecule, the EC50 is 4.54 ± 0.69 µM in data set [1] (setting [7]), 9.89 µM in data set [1] (setting [6]) and 0.82 to 4.54 µM in data set [1] (setting [8]). In addition, the CC50 in data set [3] was over 100 µM. In addition, the 50% inhibitory concentration (IC50) in data set [2] (setting [10]) turned out to be 0.67 ± 0.15 µM.

`C[C@H](NC(=O)[C@H](c1cccnc1)N(C(=O)C(Br)(Br)Br)c1ccc(-c2ccccc2)cc1)c1ccccc1` [Jun9-88-6S, N-([1,1′-biphenyl]-4-yl)-2,2,2-tribromo-N-((S)-2-oxo-2-(((S)-1-phenylethyl)amino)-1-(pyridin-3-yl)ethyl)acetamide] displayed a CC50 at 5 days in data set [4] (CC50 in Vero E6 cells) of 5.99 µM. For the same molecule, the IC50 in data set [2] (setting [10]) is 7.16 µM.

In data set [4] (Vero E6 Cytotoxicity CC50 (μM)), `C[C@H](NC(=O)C(c1cccnc1)N(C(=O)c1ccco1)c1ccc(-n2cccc2)cc1)c1ccccc1` (some centres unmarked) [Jun8-76-5] yielded a CC50 at 5 days of over 200 µM. Further, the “Selectivity index SI CC50/EC50” value in data set [1] is over 115.6. The EC50 in data set [1] (setting [7]) is 1.73 ± 0.19 µM; in data set [1] (setting [6]) it was 1.9 µM; in data set [1] (setting [8]), 0.82 to 4.54 µM. The CC50 in data set [3] was over 100 µM. Further, the values for the half-maximal inhibitory concentration (IC50) in data set [2] (IC50 against SARS-CoV-2 M^pro), in data set [2] (setting [11]) and in data set [2] (setting [12]) were under 3 µM, 0.94 µM and 0.94 ± 0.33 µM, respectively.

With `C[C@H](NC(=O)C(c1cccnc1)N(C(=O)c1ccco1)c1ccc(C(C)(C)C)cc1)c1ccccc1` (some centres unmarked) [Jun8-56-1], the EC50 in data set [1] (setting [6]) is 17.2 µM. For the same molecule, the IC50 in data set [2] (setting [11]) is 5.7 µM.

As to `C[C@H](NC(=O)C(c1cnccn1)N(C(=O)c1ccco1)c1ccc(-c2ccccc2)cc1)c1ccccc1` (some centres unmarked) [Jun9-4-4], the CC50 at 5 days in data set [4] (Vero E6 Cytotoxicity CC50 (μM)) is over 200 µM. Moreover, the “Selectivity index SI CC50/EC50” value in data set [1] was over 243.9. The EC50 in data set [1] (setting [7]) is 0.82 ± 0.56 µM; in data set [1] (setting [6]), 1.43 µM; in data set [1] (setting [8]), 0.82 to 4.54 µM. Besides, the CC50 in data set [3] was over 100 µM. Besides, in data set [2] (setting [10]), the IC50 came to 0.28 ± 0.07 µM.

As to `O=C(NC1CCCCC1)C(c1cccnc1)N(C(=O)CCl)c1ccc(-c2ccccc2)cc1` (centres unmarked) [Jun9-55-2, N-([1,1′-biphenyl]-4-yl)-2-chloro-N-(2-(cyclohexylamino)-2-oxo-1-(pyridin-3-yl)ethyl)acetamide], the CC50 at 5 days is under 11 µM in data set [4] (CC50 in Vero E6 cells) and under 2 µM in data set [5].

As for `O=C(NCC(c1ccccc1)c1ccccc1)C(c1cccnc1)N(C(=O)c1ccco1)c1ccc(-c2ccccc2)cc1` (centres unmarked) [Compound 39], in data set [3], the CC50 is over 100 µM. Further, the IC50 in data set [2] (IC50 against SARS-CoV-2 M^pro) was under 5 µM.

Turning to `C[C@H](NC(=O)C(c1cccnc1)N(C(=O)c1ccno1)c1ccc(-c2ccccc2)cc1)c1ccccc1` (some centres unmarked) [Compound 25], in data set [3], the CC50 was over 100 µM. For the same molecule, the IC50 in data set [2] (setting [10]) came out at 2.47 ± 0.27 µM.

`O=C(NCCCc1ccccc1)C(c1cccnc1)N(C(=O)c1ccco1)c1ccc(-c2ccccc2)cc1` (centres unmarked) [Jun9-12-2] came in with a CC50 at 5 days in data set [4] (Vero E6 Cytotoxicity CC50 (μM)) of over 200 µM. Also, the “Selectivity index SI CC50/EC50” value in data set [1] is on record as over 98.0. Further, the EC50 in data set [1] (setting [7]) is 2.04 ± 1.08 µM; in data set [1] (setting [6]), 2.13 µM; in data set [1] (setting [8]), 0.82 to 4.54 µM. The CC50 in data set [3] was over 100 µM. In addition, the IC50 in data set [2] (setting [11]) was determined as 1.06 µM.

As to `C[C@H](NC(=O)C(c1cccnc1)N(C(=O)c1c[nH]cn1)c1ccc(-c2ccccc2)cc1)c1ccccc1` (some centres unmarked) [Jun8-90-3], it took 129 ± 25.1 µM to reach half-maximal cytotoxicity in data set [4] (Vero E6 Cytotoxicity CC50 (μM)) (CC50 at 5 days). Moreover, in data set [1] (setting [8]), the EC50 was 0.82 to 4.54 µM. Moreover, the CC50 in data set [3] is over 100 µM. Moreover, in data set [2] (setting [12]), the IC50 amounted to 0.96 ± 0.09 µM.

On to `C[C@H](NC(=O)[C@H](c1cccnc1)N(C(=O)C(Br)Br)c1ccc(-c2ccccc2)cc1)c1ccccc1` [Jun9-89-2S, N-([1,1′-biphenyl]-4-yl)-2,2-dibromo-N-((S)-2-oxo-2-(((S)-1-phenylethyl)amino)-1-(pyridin-3-yl)ethyl)acetamide], for which the CC50 at 5 days in data set [4] (CC50 in Vero E6 cells) is 4.57 µM. In data set [2] (IC50 against SARS-CoV-2 M^pro), this molecule returned an IC50 of 2.44 µM.

Take `C[C@H](NC(=O)C(c1cnccn1)N(C(=O)CCl)c1ccc(-c2ccccc2)cc1)c1ccccc1` (stereo partly drawn) [Jun9-59-1, 2-(N-{[1,1′-biphenyl]-4-yl}-2-chioroacetamido)-N-[(1S)-1-phenylethyl]-2-(pyrazin-2-yl)acetamide]: the values for the CC50 at 5 days in data set [4] (CC50 in Vero E6 cells) and in data set [5] were under 11 µM and under 2 µM, respectively.

As for `C[C@H](NC(=O)[C@H](c1cccnc1)N(C(=O)C(Cl)Cl)c1ccc(-c2ccccc2)cc1)c1ccc(Br)cc1` [Jun9-90-3S, N-([1,1′-biphenyl]-4-yl)-N-((S)-2-(((S)-1-(4-bromophenyl)ethyl)amino)-2-oxo-1-(pyridin-3-yl)ethyl)-2,2-dichloroacetamide], the IC50 in data set [2] (IC50 against SARS-CoV-2 M^pro) is over 20 µM.

As for `O=C(NC1CC1)C(c1cccnc1)N(C(=O)CCl)c1ccc(-c2ccccc2)cc1` (centres unmarked) [Jun9-57-2, N-([1,1′-biphenyl]-4-yl)-2-chloro-N-(2-(cyclopropylamino)-2-oxo-1-(pyridin-3-yl)ethyl)acetamide], the CC50 at 5 days in data set [4] (CC50 in Vero E6 cells) was under 11 µM; in data set [5] it was under 2 µM.

For `C[C@H](NC(=O)C(c1cccnc1)N(C(=O)c1ccco1)c1ccc(-c2cccs2)cc1)c1ccccc1` (some centres unmarked) [Jun8-91-4], the IC50 in data set [2] (setting [9]) was determined as 14.6 µM.

On to `C[C@H](NC(=O)C(c1cccnc1)N(C(=O)c1ccco1)c1ccc([Si](C)(C)C)cc1)c1ccccc1` (some centres unmarked) [Jun8-75-2], for which the EC50 in data set [1] (Severe acute respiratory syndrome coronavirus 2, Vero C1008, read-out: SARS-COV-2 antiviral activity using immunofluorescence assay EC50) turned out to be 8.84 µM. Further, in data set [2] (setting [11]), the concentration for half-maximal inhibition (IC50) amounted to 1.97 µM.

Take `CC(C)(C)c1ccc(N(C(=O)c2ccco2)C(C(=O)NC2CCCC2)c2cccnc2)cc1` (centres unmarked) [Jun8-88-2]: the EC50 in data set [1] (setting [6]) is 12.9 µM. For the same molecule, the IC50 in data set [2] (setting [11]) was 2.51 µM.

In the case of `CC(C)(C)c1ccc(N(C(=O)c2ccco2)C(C(=O)NC2CC2)c2cccnc2)cc1` (centres unmarked) [Jun8-58-2], the IC50 in data set [2] (setting [11]) was 3.86 µM.

For `O=C(NC1CCCC1)C(c1cccnc1)N(C(=O)CCl)c1ccc(-c2ccccc2)cc1` (centres unmarked) [Jun9-55-1, 2-(N-{[1,1′-biphenyl]-4-yl}-2-chloroacetamido)-N-cyclopentyl-2-(pyridin-3-yl)acetamide], the figures for the CC50 at 5 days in data set [4] (CC50 in Vero E6 cells) and in data set [5] were under 11 µM and under 2 µM, respectively.

Take `C[C@H](NC(=O)C(c1cccnc1)N(C(=O)c1ccno1)c1ccc(C2CCCCC2)cc1)c1ccccc1` (some centres unmarked) [Compound 36]: in data set [2] (setting [10]), the IC50 came to 0.81 ± 0.24 µM.

Turning to `CC(C)(C)c1ccc(N(C(=O)c2ccco2)C(C(=O)Nc2ccc(F)cc2)c2cccnc2)cc1` (centres unmarked) [Jun9-88-3], in data set [2] (setting [11]), the IC50 turned out to be 7.81 µM.

What is called EC50 is the concentration giving half of the maximal effect. The term CC50 denotes the concentration giving 50% cytotoxicity. What is called IC50 is the concentration that inhibits the measured activity by half.
